# Test results taken from paper PMC3664642, “A Peptide against Soluble Guanylyl Cyclase α1: A New Approach to Treating Prostate Cancer” (PLoS ONE, 2013).
# Entries after “also recorded” stand apart in the source; their conditions may differ. Where no end group is shown, it is not given here.
# What was measured:
# LNCaP cells = assay: Proliferation of LNCaP cells without or with R1881 (MTT); format: cell-based; details: 2% serum without or with 1 nM R1881; 50 µM peptide; day 6; Fig. 3A; averages of three independent experiments; P<0.03 vs Vehicle
# Protocol: (§1) For proliferation, cells were grown in medium containing 2% FBS extracted with dextran-coated charcoal (DCC). 48 hours later, ethanol or 1 nM R1881 was added to the cells followed by peptide treatment. The MTT assay (Sigma) was used as before to determine cell number. For apoptosis, 5000 cells were seeded in 96-well plates and treated with Vehicle (DMSO), Peptide A-8R (25 µM), Etoposide (50 µM) (Sigma) at different time points. The Caspase (3/7) activity was measured using Apo-ONE Homogeneous Caspase-3/7 assay kit (Promega). PARP cleavage was also used to measure apoptosis, and is described below.
# Vehicle or different concentrations of Peptide A-8R or C-8R, as shown, was added to (A) hormone-dependent LNCaP cells grown in 2% serum without or with 1 nM R1881, (C) castration-resistant C81 or CWR-22Rv1 cells, or (E) sGCα1-deficient PC-3 or Cos cells. Cell number was measured after various days of incubation. Data points represent averages of three independent experiments plus standard deviations. Asterisks indicate statistical significance (P<0.03) of Peptide A activity, relative to Vehicle. Western blotting was used to monitor expression of endogenous sGCα1 in (B) C81 and CWR-22Rv1 cells, treated without or with 1 nM R1881, or (E) PC-3 and Cos cells, as compared to LNCaP cells. Note that β-actin was used to control for protein loading.
# sGCα1 = biological target: T1, sGCα1 (Homo sapiens, UniProt Q02108); assay: Biotin pulldown and competition from LNCaP extract; format: binding; details: competition, 150 µg unlabeled peptide vs 5 µg Peptide A-8R-Biotin; Fig. 2B
# T1 sequence (Q02108 1-690): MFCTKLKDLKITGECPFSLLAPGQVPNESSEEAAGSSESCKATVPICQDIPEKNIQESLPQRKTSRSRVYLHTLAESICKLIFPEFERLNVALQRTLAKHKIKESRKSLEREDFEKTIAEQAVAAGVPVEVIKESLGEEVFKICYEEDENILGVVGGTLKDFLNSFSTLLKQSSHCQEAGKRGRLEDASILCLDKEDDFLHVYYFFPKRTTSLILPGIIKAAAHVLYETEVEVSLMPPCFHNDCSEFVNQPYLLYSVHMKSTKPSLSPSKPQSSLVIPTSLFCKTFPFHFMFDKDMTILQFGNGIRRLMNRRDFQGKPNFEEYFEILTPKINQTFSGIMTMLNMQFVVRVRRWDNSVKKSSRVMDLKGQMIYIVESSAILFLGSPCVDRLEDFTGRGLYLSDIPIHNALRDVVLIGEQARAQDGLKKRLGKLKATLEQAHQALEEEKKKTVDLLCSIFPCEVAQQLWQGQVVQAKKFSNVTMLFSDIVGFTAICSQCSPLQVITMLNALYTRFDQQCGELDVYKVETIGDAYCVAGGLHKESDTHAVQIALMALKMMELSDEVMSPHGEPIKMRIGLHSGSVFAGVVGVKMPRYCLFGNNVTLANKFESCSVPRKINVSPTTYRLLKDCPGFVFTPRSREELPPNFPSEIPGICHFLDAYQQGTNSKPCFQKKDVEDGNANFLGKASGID
# Protocol: Immunoprecipitation (IP) in LNCaP cells was performed as described previously. Whole-cell extracts from LNCaP cells were subjected to IP using Protein A/G plus Agarose (Santa Cruz). IP antibodies were against sGCα1 (Cayman Chemical), sGCβ1 (Cayman Chemical), or rabbit IgG (Santa Cruz) as control. For Biotin pulldown, 5 µg Biotin-labeled Peptide A was incubated with NeutrAvidin Agarose Resin (Thermo Scientific) for 3 hours at 4°C, after which whole-cell extract from LNCaP cells was added and incubated overnight at 4°C. Resin was washed and eluted with SDS Sample buffer, followed by SDS-PAGE gel electrophoresis.
# Figure 2 Peptide A-8R interacts with sGCα1 in prostate cancer cells. (A) LNCaP cells were treated with 25 µM Biotin-labeled Peptide A-8R for 2 hrs and subjected to immunocytochemistry using anti-sGCα1 or anti-Biotin antibody to measure subcellular co-localization of endogenous sGCα1 and Peptide A-8R. DAPI was used to stain nuclei. (B) LNCaP cytosolic extracts were incubated with Peptide A-8R-Biotin and subjected to purification using streptavidin-agarose. This pull-down experiment was repeated with competing excess amount of unlabeled Peptide C-8R or Peptide A-8R. In both cases Western blotting was used to measure the co-purification of sGCα1. […] Co-purified Peptide A-8R-FITC was quantified by measuring fluorescence signal emission. […] Cell number was measured after 0–48 hrs of incubation. […]
# sGC = assay: cGMP levels in LNCaP cells (ELISA); format: cell-based; details: 1 nM R1881 absent or present, 20 µM peptide, cGMP EIA kit, Fig. S1B
# Protocol: (A) Whole-cell extracts from LNCaP cells treated with Vehicle, Peptide A-8R, or C-8R were subjected to IP using an anti-sGCα1 or anti-sGCβ1 antibody and then probed by Western blotting for sGCα1 (Upper) or sGCβ1 (Lower). Input represents amount of sGCα1 or sGCβ1 found in extracts. (B) LNCaP cells grown in the absence or presence of 1 nM R1881 were treated with Vehicle, 20 µM Peptide A-8R, 20 µM C-8R, or 8-Br-cGMP and monitored for cGMP levels using the cGMP E1A kit (Enzo Life Sciences). (C) LNCaP cells grown in the absence or presence of 8-Br-cGMP were treated with Vehicle, Peptide A-8R, or ODQ and monitored for cell density using the MTT assay. (D) LNCaP cells were treated with Vehicle or different concentrations of Peptide A-8R and C-PTIO and monitored for cell density. Bar graphs represent averages of three independent experiments plus standard deviations. Asterisks indicate statistical significance (P<0.04). (TIF) Click here for additional data file.
# [1] = system: Caspase 3/7 activity in PC-3 cells; assay: Caspase 3/7 assay, PC-3 cells; format: cell-based; details: 10 µM; 0–24 hrs; Fig. 5B
# Protocol: as §1
# Figure 5 Peptide A-8R induces apoptosis of prostate cancer cells. (A) LNCaP, (B) PC-3, or (C) Cos cells were treated with Vehicle, Peptide A-8R (10 µM), or Etoposide (20 µM) for 0–24 hrs and subjected to a Caspase assay to measure apoptosis. Bar graphs represent averages of three independent experiments plus standard deviations. All activities are relative to the first condition, and this activity was set to 1. Asterisks indicate statistical significance (P<0.005). (D) LNCaP cells were treated with Vehicle, Peptide C-8R, Peptide A-8R, or Etoposide (each drug at 50 µM) for 8 hrs and monitored for apoptosis by measuring PARP cleavage using Western blotting. Note that β-actin was used to control for protein loading.
substance,measurement,setting,value
Ac-TFCKAFPFHIIRRRRRRRR [Peptide A-8R],"cytotoxic activity with or without androgen, LNCaP",LNCaP cells,"same potent cytotoxic activity with or without androgen, causing all cells to perish by day 6 when treated with 50 µM peptide"
same,inhibition of Peptide A-8R-Biotin interaction with sGCα1,sGCα1,significantly inhibited Peptide A-8R-Biotin interaction with sGCα1
same,cGMP levels,sGC,"unable to significantly repress cGMP levels, in either the absence or presence of androgen; also recorded: does not interfere with sGCα1-sGCβ1 dimerization and androgen-induced cGMP synthesis"
same,"induction of apoptosis, PC-3",[1],failed to induce apoptosis
